Assay [1] has as its system Panel (Carcinoma cell lines). Briefly: Inhibitory activity against human cancer cell line growth was determined. The assay is classed as functional.
In assay [2] the test system is Panel (Carcinoma cell lines). Briefly: Effective dose for human cancer cell line growth inhibition was determined. The assay is classed as functional. The following applies: read-out: ED50 (the source's name).

For orientation: GI50 means the concentration at which growth is held to half of that of the control. Read a high GI50 as lower sensitivity of the cells.

In brackets after ≈: the same amount, converted by molar mass. Bounds are passed on as bounds.

The compound `C[C@@H]1[C@]2(O[C@H]3C=C4[C@@H]5CC[C@H]6Cc7nc8c(nc7C[C@]6(C)[C@H]5C[C@@H](O)[C@]4(C)[C@]31O)C[C@@H]1CC[C@H]3C4=CC[C@@H]5[C@H](C)[C@@]6(OC[C@]45C(=O)C[C@@H]3[C@@]1(C)C8)OC(C)(C)C[C@H]6O)O[C@](C)(CO)C[C@H]2O` [CEPHALOSTATIN 1] came in with a GI50 in assay [1] of 1 nM. In the case of `C[C@@H]1[C@]2(O[C@H]3C=C4[C@@H]5CC[C@H]6Cc7nc8c(nc7C[C@]6(C)[C@H]5C[C@@H](O)[C@]4(C)[C@]31O)C[C@@H]1CC[C@H]3C4=C[C@@H]5O[C@]6(O[C@](C)(CO)C[C@H]6O)[C@@H](C)[C@]5(O)[C@@]4(C)[C@H](O)C[C@@H]3[C@@]1(C)C8)O[C@](C)(CO)C[C@H]2O` [CEPHALOSTATIN 12], the EC50 in assay [2] came out at 0.072 µg/mL (≈ 0.0762 µM). In assay [1], this compound showed a GI50 of 400 nM.

`C[C@@H]1[C@]2(O[C@H]3C=C4[C@@H]5CC[C@H]6Cc7nc8c(nc7C[C@]6(C)[C@H]5C[C@@H](O)[C@]4(C)[C@]31O)C[C@@H]1CC[C@H]3C4=C[C@@H]5O[C@]6(O[C@](C)(CO)C[C@H]6O)[C@@H](C)[C@]5(O)[C@@]4(C)[C@H](O)C[C@@H]3[C@@]1(C)[C@H]8O)O[C@](C)(CO)C[C@H]2O` [CEPHALOSTATIN 13]: the EC50 in assay [2] is 0.046 µg/mL (≈ 0.0479 µM). Moreover, the GI50 in assay [1] is over 1000 nM.

These data come from ChEMBL document CHEMBL1127915, “Isolation and structure of the symmetrical disteroidal alkaloids cephalostatin 12 and cephalostatin 13” (1994).
